Measurements published in the supplement of paper PMC10307832.

Legend:
Assay in all cases: relative viability (nuclei count vs DMSO), 5 days (fraction); higher = more cells survive
Vorinostat + Trametinib = compound: O=C(CCCCCCC(=O)Nc1ccccc1)NO [Vorinostat] + CC(=O)Nc1cccc(-n2c(=O)n(C3CC3)c(=O)c3c(Nc4ccc(I)cc4F)n(C)c(=O)c(C)c32)c1 [Trametinib] (partner 0.02 µM)
Procedure, shortened: (§1)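 Relative viability divides the nuclei count in treated wells by that in vehicle wells. Lung cancer cell lines were seeded in 1536-well plates, dosed by pin tool the next day, and fixed and stained after 5 days in one step with final 0.05% Triton X-100, 1% formaldehyde and 1 ug/ml Hoechst. Dosing was a single drug or a fixed anchor-drug dose plus five library-drug doses (not always all listed) in √10 steps, and values are medians of duplicate plates imaged at 4×.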

Vorinostat + Foretinib = compound: O=C(CCCCCCC(=O)Nc1ccccc1)NO [Vorinostat] + COc1cc2c(Oc3ccc(NC(=O)C4(C(=O)Nc5ccc(F)cc5)CC4)cc3F)ccnc2cc1OCCCN1CCOCC1 [Foretinib] (partner 0.25 µM)
Procedure, shortened: as §1

Vorinostat + Lapatinib = compound: O=C(CCCCCCC(=O)Nc1ccccc1)NO [Vorinostat] + CS(=O)(=O)CCNCc1ccc(-c2ccc3ncnc(Nc4ccc(OCc5cccc(F)c5)c(Cl)c4)c3c2)o1 [Lapatinib] (partner 2 µM)
Procedure, shortened: as §1

Vorinostat + Linsitinib = compound: O=C(CCCCCCC(=O)Nc1ccccc1)NO [Vorinostat] + C[C@]1(O)C[C@@H](c2nc(-c3ccc4ccc(-c5ccccc5)nc4c3)c3c(N)nccn32)C1 [Linsitinib] (partner 1 µM)
Procedure, shortened: as §1

Vorinostat + Dasatinib = compound: O=C(CCCCCCC(=O)Nc1ccccc1)NO [Vorinostat] + Cc1nc(Nc2ncc(C(=O)Nc3c(C)cccc3Cl)s2)cc(N2CCN(CCO)CC2)n1 [Dasatinib] (partner 0.075 µM)
Procedure, shortened: as §1

| Cell Line | relative viability (Vorinostat + Trametinib; first compound 0.253 µM) | relative viability (Vorinostat + Trametinib; first compound 0.8 µM) | relative viability (Vorinostat + Trametinib; first compound 2.53 µM) | relative viability (Vorinostat + Trametinib; first compound 8 µM) | relative viability (Vorinostat + Foretinib; first compound 0.253 µM) | relative viability (Vorinostat + Foretinib; first compound 0.8 µM) | relative viability (Vorinostat + Foretinib; first compound 2.53 µM) | relative viability (Vorinostat + Foretinib; first compound 8 µM) | relative viability (Vorinostat + Lapatinib; first compound 0.253 µM) | relative viability (Vorinostat + Lapatinib; first compound 0.8 µM) | relative viability (Vorinostat + Lapatinib; first compound 2.53 µM) | relative viability (Vorinostat + Lapatinib; first compound 8 µM) | relative viability (Vorinostat + Linsitinib; first compound 0.253 µM) | relative viability (Vorinostat + Linsitinib; first compound 0.8 µM) | relative viability (Vorinostat + Linsitinib; first compound 2.53 µM) | relative viability (Vorinostat + Linsitinib; first compound 8 µM) | relative viability (Vorinostat + Dasatinib; first compound 0.253 µM) | relative viability (Vorinostat + Dasatinib; first compound 0.8 µM) | relative viability (Vorinostat + Dasatinib; first compound 2.53 µM) | relative viability (Vorinostat + Dasatinib; first compound 8 µM) |
| --- | --- | --- | --- | --- | --- | --- | --- | --- | --- | --- | --- | --- | --- | --- | --- | --- | --- | --- | --- | --- |
| NCI-H647 | 0.642 | 0.497 | 0.164 | 0.0479 | 1.08 | 1.04 | 0.507 | 0.0683 | 1.49 | 0.947 | 0.163 | 0.0687 | 1.24 | 0.959 | 0.294 | 0.0525 | 0.18 | 0.233 | 0.0551 | 0.0337 |
| LK-2 | 0.893 | 0.496 | 0.167 | 0.0907 | 1.03 | 0.896 | 0.28 | 0.137 | 1.19 | 0.673 | 0.209 | 0.108 | 0.58 | 0.328 | 0.143 | 0.0894 | 0.36 | 0.188 | 0.114 | 0.123 |
| NCI-H650 | 1.24 | 0.839 | 0.243 | 0.111 | 0.998 | 0.907 | 0.213 | 0.151 | 1.15 | 0.489 | 0.196 | 0.177 | 1.13 | 0.52 | 0.205 | 0.152 | 0.475 | 0.357 | 0.196 | 0.126 |
| NCI-H1437 | 0.481 | 0.368 | 0.23 | 0.155 | 1.25 | 1.22 | 0.546 | 0.171 | 0.846 | 0.476 | 0.153 | 0.0924 | 1.19 | 0.789 | 0.138 | 0.0938 | 0.459 | 0.183 | 0.152 | 0.137 |
| NCI-H1915 | 0.36 | 0.291 | 0.227 | 0.101 | 1.14 | 1.05 | 0.474 | 0.137 | 1.03 | 0.962 | 0.673 | 0.0743 | 1.12 | 1.03 | 0.587 | 0.113 | 0.324 | 0.24 | 0.164 | 0.108 |
| UMC-11 | 0.845 | 0.245 | 0.0839 | 0.0678 | 1.12 | 0.465 | 0.121 | 0.103 | 1.05 | 0.238 | 0.137 | 0.0786 | 1 | 0.6 | 0.164 | 0.0865 | 0.423 | 0.258 | 0.121 | 0.0971 |
| NCI-H661 | 0.767 | 0.614 | 0.303 | 0.301 | 1.11 | 0.843 | 0.447 | 0.298 | 0.549 | 0.682 | 0.275 | 0.161 | 0.759 | 0.752 | 0.298 | 0.184 | 1.11 | 0.791 | 0.247 | 0.223 |
| NCI-H23 | 0.606 | 0.405 | 0.166 | 0.129 | 1.05 | 0.724 | 0.336 | 0.129 | 1.24 | 1.03 | 0.344 | 0.141 | 0.866 | 0.711 | 0.21 | 0.124 | 0.922 | 0.671 | 0.41 | 0.0961 |
